This is an account of results in patent publication US11191773B2, “Methods of treatment for bacterial infections” (President and Fellows of Harvard College, priority 2017, dated 2021).

Each structure is given as a SMILES string. Read-outs that look alike come from different tables or passages of the source. Bridge positions count the residues as written; N and C are the ends. Square brackets hold non-standard residues; d marks the D form. Peptide text beside a SMILES is read from it. * marks the point of attachment. Ileψ(thiazoline)Cys = CC[C@H](C)[C@H](N)C1=N[C@H](C(=O)*)CS1; dOrn = NCCC[C@@H](N)C(=O)O

One experiment has as its system lptB1. Put plainly: Disk diffusion assay. It counts as cell-based, E. coli. To be noted: for Zone of inhibition, diameter of the zone of total growth inhibition: 6-mm disks, bacitracin 10IU, erythromycin 15 μg, novobiocin 30 μg, rifampin 5 μg, nalidixic acid 5 μg; for zone of inhibition at 15 µg/disc / zone of inhibition at 5 µg/disc: Escherichia coli. The procedure: (§1) Zones of inhibition were measured in disk diffusion assays of wild type, IptB1, and suppressors IptB1(R144H) and IptB1(G33C) pictured in FIG. 6B. Assays were conducted with 6-mm disks. Numbers outside of parentheses report the diameter of the zone of total growth inhibition (in mm), while numbers inside parenthesis report the diameter of the zone of partial growth inhibition.
(§2) Disk diffusion assays were performed as described in Sherman et al., Proc. Natl. Acad. Sci. USA 2014, 111, 4982-4987. Premade Sensi-Disc (BD-Beckton, Dickinson and Company) were used for bacitracin 10IU, erythromycin 15 μg, novobiocin 30 μg, and rifampin 5 μg.
A general note: Agar diffusion results depend on both activity and mobility in agar.

The test system of the next experiment is lptB1(G33C). Put plainly: Disk diffusion assay. The format is cell-based, E. coli. The method, then: as §1, §2
The test system of a further experiment is wild type. Put plainly: Disk diffusion assay. To be noted: 6-mm disks, bacitracin 10IU, erythromycin 15 μg, novobiocin 30 μg, rifampin 5 μg, nalidixic acid 5 μg. The format is cell-based, E. coli. The method, then:
as §1, §2

Another experiment relates to lptB1(R144H). As to the kind of experiment: Disk diffusion assay. To be noted: for Zone of inhibition, diameter of the zone of total growth inhibition: 6-mm disks, bacitracin 10IU, erythromycin 15 μg, novobiocin 30 μg, rifampin 5 μg, nalidixic acid 5 μg. The format is cell-based, E. coli. The method, then: as §1, §2
Another experiment concerns IptFG(ch) mutant. Put plainly: Rescue of growth of coupling helix mutant (plating and disk assays). The format is cell-based, E. coli. To be noted: disks on LB plates, each disk 5 μg compound (FIG. 15). The procedure:
FIG. 8B is a series of pictures of bacterial overnight cultures grown in minimal medium. The cultures were serially diluted ten-fold and spotted onto LB agar plates with and without compounds.
FIG. 15 is a picture of bacterial lawns grown on plates in the presence of disks containing antibiotics. […] Strains were grown overnight in minimal media and then plated on LB plates. Each disk contained 5 μg compound.
The coupling helices in LptFG each contain a strictly-conserved glutamate, and changing both glutamates to alanine (IptFG(ch)) causes a lethal loss of function (FIG. 8B, LB panel). […] Because novobiocin also contacts R91 (FIG. 7C), we speculated that it might rescue growth of IptFG(ch) by masking the charge. […] We conclude that novobiocin suppresses Lpt defects in vivo by interacting with LptB at R91; therefore, novobiocin interacts with LptB in cells in a similar manner to that observed in the crystal structure.
as §2
Efficiency of plating assays were performed on indicated media using the method described in Butler et al., J. Bacteriol. 2013, 195, 4639-4649.

For a further experiment, the target named is T1, LptB (Escherichia coli, UniProt P0A9V1).
T1 construct: LptB-His (full-length LptB with a C-terminal His8 tag); His8 (C); made in house; host or cells: E. coli KRX (Promega)
T1 sequence (P0A9V1 whole entry): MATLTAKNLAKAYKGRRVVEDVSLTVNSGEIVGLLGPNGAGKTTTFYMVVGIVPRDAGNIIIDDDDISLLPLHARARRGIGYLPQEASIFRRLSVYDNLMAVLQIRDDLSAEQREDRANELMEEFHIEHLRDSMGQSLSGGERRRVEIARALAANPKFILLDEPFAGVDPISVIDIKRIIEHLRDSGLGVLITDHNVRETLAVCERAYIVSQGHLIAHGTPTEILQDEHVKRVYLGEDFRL
As to the kind of experiment: Fbn-LptB binding assay (19F NMR linewidth). The arrangement: species or system E. coli. The method, then: FIG. 12 is a graph showing the ^19F NMR linewidth of fluorobiocin (fbn) plotted vs. log[LptB]. Data were analyzed with GraphPad Prism 7 software using a nonlinear fit, log(agonist) vs. response with an R^2=0.9909.
We soaked novobiocin into LptB-ADP crystals and obtained a 2.0-Å structure of a co-complex (FIG. 7A, FIG. 11). ADP is still present in the co-complex, and novobiocin binds adjacent to the groove in LptB that accommodates the coupling helices from LptFG (FIG. 7B, FIG. 11). Coupling helices are a conserved motif in ABC systems that connect the transmembrane domains (here, LptFG) to the nucleotide-binding domains (here, LptB). […] This residue is invariant in LptB, and non-conservative substitutions at this position are lethal because they disrupt proper formation of the LptB2FG complex. Novobiocin thus binds a critical position at the LptBLptFG interface. To estimate the affinity of novobiocin for LptB, we synthesized an otherwise identical analogue in which a phenolic hydroxyl was substituted with a 19F-label (fluorobiocin, FIG. 8A).
5 mL of the buffered Fbn ligand solution was prepared by mixing 200 μL of 25X TBS pH 8.0, 125 μL 200 mM ADP pH 7.0, 125 μL 200 mM MgCl2, 4.43 μL of 56.5 mM Fbn, 4.55 mL of D20. Final [Tris-Cl]=50 mM, [NaCl]=150 mM, [ADP]=5 mM, [MgCl2]=5 mM, [Fbn]=50 μM. […]

Where [1] appears, read: 6-mm disks, bacitracin 10IU, erythromycin 15 μg, novobiocin 30 μg, rifampin 5 μg, nalidixic acid 5 μg.
Setting [2] is: read-out: Zone of inhibition, diameter of the zone of partial growth inhibition (in parentheses).
[3] abbreviates: read-out: Zone of inhibition, diameter of the zone of total growth inhibition.
The mark [4] stands for this setting: Escherichia coli, read-out: Zone of inhibition, diameter of the zone of partial growth inhibition (in parentheses).
Where [5] appears, read: Escherichia coli, read-out: Zone of inhibition, diameter of the zone of total growth inhibition.

For the molecule `CC[C@H](C)[C@H](N)C1=N[C@H](C(=O)N[C@@H](CC(C)C)C(=O)N[C@H](CCC(=O)O)C(=O)N[C@H](C(=O)N[C@H]2CCCCNC(=O)[C@H](CC(N)=O)NC(=O)[C@@H](CC(=O)O)NC(=O)[C@H](Cc3cnc[nH]3)NC(=O)[C@@H](Cc3ccccc3)NC(=O)[C@H]([C@@H](C)CC)NC(=O)[C@@H](CCCN)NC2=O)[C@@H](C)CC)CS1` [Bacitracin] ({Ileψ(thiazoline)Cys}-L[dE]IK[dOrn]I[dF]H[dD]N; lactam 4-C), the “Zone of inhibition, diameter of the zone of total growth inhibition” value is 17 mm with lptB1, <6 mm in the experiment on wild type and 17 mm in the experiment with lptB1(R144H). Further, in the experiment on lptB1(G33C) (setting [1]), the “Zone of inhibition, diameter of the zone of partial growth inhibition (in parentheses)” value is “(8) mm”.

By zone of inhibition is commonly meant the extent of the growth-free halo in a diffusion test. On to `CC[C@H]1OC(=O)[C@H](C)[C@@H](O[C@H]2C[C@@](C)(OC)[C@@H](O)[C@H](C)O2)[C@H](C)[C@@H](O[C@@H]2O[C@H](C)C[C@H](N(C)C)[C@H]2O)[C@](C)(O)C[C@@H](C)C(=O)[C@H](C)[C@@H](O)[C@]1(C)O` [Erythromycin], for which the zone of inhibition at 15 µg/disc stood at 21 mm in the experiment with lptB1 (setting [2]); 16 mm with lptB1 (setting [3]); 11 mm in the experiment on lptB1(G33C) (setting [4]); 8 mm in the experiment on wild type (setting [4]); 16 mm in the experiment with lptB1(R144H) (setting [4]).

As for `CCn1cc(C(=O)O)c(=O)c2ccc(C)nc21` [Nalidixic acid], the zone of inhibition at 5 µg/disc came to 21 mm in the experiment on lptB1 (setting [2]); 18 mm with lptB1 (setting [3]); 14 mm with lptB1(G33C) (setting [4]); 12 mm in the experiment on lptB1(G33C) (setting [5]); 14 mm in the experiment on wild type (setting [4]); 11 mm in the experiment with wild type (setting [5]). Also, the figures for the zone of inhibition at 5 µg/disc in the experiment with lptB1(R144H) (setting [4]) and in the experiment on lptB1(R144H) (setting [5]) were 20 mm and 17 mm, respectively. For the same molecule, in the experiment on IptFG(ch) mutant, the “suppression of lethality of IptFG(ch)” value is recorded as “but not nalidixic acid (NA), suppressed the lethality of IptFG(ch)”.

As to `CO[C@H]1/C=C/O[C@@]2(C)Oc3c(C)c(O)c4c(O)c(c(/C=N/N5CCN(C)CC5)c(O)c4c3C2=O)NC(=O)/C(C)=C\C=C\[C@H](C)[C@H](O)[C@@H](C)[C@@H](O)[C@@H](C)[C@H](OC(C)=O)[C@@H]1C` [Rifampicin], the “Zone of inhibition, diameter of the zone of total growth inhibition” value with lptB1 turned out to be 17 mm; in the experiment on lptB1(G33C) (setting [1]) it was 9 mm; with wild type it was 8 mm; in the experiment with lptB1(R144H) it was 24 mm. For the same molecule, in the experiment with wild type, the “Zone of inhibition, diameter of the zone of partial growth inhibition (in parentheses)” value is given as 9 mm.

As usually defined, the Kd is the constant that tells how readily two partners part at equilibrium. Higher therefore signals weaker binding. At LptB (19F NMR linewidth vs. log[LptB], nonlinear fit, [Fbn]=50 μM, 5 mM ADP), `CO[C@@H]1[C@@H](OC(N)=O)[C@@H](O)[C@H](Oc2ccc3c(O)c(NC(=O)c4ccc(F)c(CC=C(C)C)c4)c(=O)oc3c2C)OC1(C)C` [fluorobiocin, (3R,4S,5R,6R)-6-((3-(4-fluoro-3-(3-methylbut-2-en-1-yl)benzamido)-4-hydroxy-8-methyl-2-oxo-2H-chromen-7-yl)oxy)-5-hydroxy-3-methoxy-2,2-dimethyltetrahydro-2H-pyran-4-yl carbamate] had a Kd of 18 µM. Further, on LptB (Solution NMR binding experiments), the “affinity for LptB in words” value was “low micromolar binder”.
